Measurements reported in US20240282989A1, “PHENOTHIAZINE DERIVATIVES AND REDOX-FLOW BATTERIES” (University of Kentucky Research Foundation, priority 2023, published 2024).

Columns and labels:
Format in all cases: physicochemical
[1] = Solubility / miscibility measurement (NMR method, internal standard); details: for solubility: organic solvent or mixture, NMR method
Procedure: The MEEPRT-TFSI monomer is a viscous liquid at room temperature, the miscibility was determined in acetonitrile and 0.1 M TEATFSI in acetonitrile. In both solvents, it is miscible when mixed with 1:10, 10:1, and 1:1 ratio by wt. of acetonitrile:redoxomers. Solubility of redoxomers were determined by NMR method using 1,4-bis(trifluoromethyl)benzene as an internal standard.

[2] = Cyclic voltammetry of monomer and dimer; details: for 1st oxidation potential / ipa/ipc / peak separation: 1 mM in 0.1 M TEABF4/ACN; for redox event (number of electrons, reversibility) / oxidation potential: 10 mM solution; for redox event (number of electrons, reversibility): cyclic voltammetry; for ipa/ipc / peak separation: 1st oxidation; for oxidation potential: referenced to Fc/Fc+, glassy carbon working electrode
Procedure: The electrochemical stability and reversibility of redox-events were determined by cyclic voltammetry experiments, which were carried out in a CH Instrument potentiostat with glassy carbon electrode as a working electrode, Pt-wire electrode as a counter electrode and a silver electrode as a reference electrode. […]

[3] = Cross-over experiments in custom-built H-cell with FAPQ-375-PP membrane; details: 0.1 M redoxomer in anhydrous acetonitrile; two layers FAPQ-375-PP membrane; CV of blank side up to 24 h
Procedure: We compared cross-over fractions of our newly synthesized redoxomers with our previous redoxomers such as MEEPT and EPRT-TFSI using a custom-built H-cell. A stack of two layer of FAPQ-375-PP membrane pre-soaked in acetonitrile for 24 h was used as membrane between two compartments of H-cell. For each set of experiment, a 0.1 M solution of redoxomer in anhydrous acetonitrile on the left side and acetonitrile (blank solution) on the right side. The cross over fractions were determined by cyclic voltammetry of the solution from the blank side in 0 h, 2 h, 4 h, 8 h, 12 h, and 24 h in a argon-filled glovebox.

Row | solubility ([1]; in 0.1 M TEATFSI in acetonitrile) [mM] | solubility ([1]; in acetonitrile) [mM] | 1st oxidation potential [2] [V] | ipa/ipc [2] | peak separation [2] [mV] | oxidation potential [2] | cross over fraction [3] | miscibility ([1]; in 0.1 M TEATFSI in acetonitrile, 1:10, 10:1 and 1:1 ratio by wt.) | miscibility ([1]; in acetonitrile, 1:10, 10:1 and 1:1 ratio by wt. acetonitrile:redoxomers, room temperature) | SMILES | redox event (number of electrons, reversibility) [2] | miscibility of radical cations ([1]; in acetonitrile, 1:1, 10:1 and 1:10 by wt.)
1 | 1200 | 1600 | 0.54 | 1.06 | 59 | same potential | 0.0037 |  |  | CC(CN1c2ccccc2Sc2ccccc21)[N+](C)(C)CCOCCOCC[N+](C)(C)C(C)CN1c2ccccc2Sc2ccccc21 (stereo not drawn) [EEEPRT-TFSI2] | two-electron reversible redox event | 
2 |  |  | 0.54 | 1.06 | 59 | 0.54 V | 0.0346 | miscible | miscible | COCCOCC[N+](C)(C)C(C)CN1c2ccccc2Sc2ccccc21 (stereo not drawn) [MEEPRT-TFSI] | single electron reversible redox reaction | 
3 |  |  |  |  |  |  | 0.0471 |  |  | COCCOCCN1c2ccccc2Sc2ccccc21 [MEEPT, reference compound] |  | 
4 |  |  |  |  |  |  |  |  |  | CC(C[N+]1c2ccccc2Sc2ccccc21)[N+](C)(C)CCOCCOCC[N+](C)(C)C(C)C[N+]1c2ccccc2Sc2ccccc21 (stereo not drawn) [dimer radical cation] |  | completely miscible
